These results are taken from patent publication US12264299B2, “Detergent composition” (SYMRISE AG, priority 2018, dated 2025).

In this assay the test system is Corynebacterium xerosis ATCC373 and Staphylococcus aureus ATCC6538. Briefly: Microbial counts on inoculated synthetic fabric after washing and drying. As to conditions: comparison of groups, 24 and 72 hours results. The assay is classed as cell-based. The text has this: The objective of the following examples and comparison examples has been to evaluate bactericide and bacteriostatic performance of a specific active composition (SymClariol, Symrise AG) at 0.25% and 1% in a regular fabric softener composition.
Inoculate Corynebacterium xerosis ATCC373 and Staphylococcus aureus ATCC6538 in white synthetic fabric 89% polyester and 11% elastane. SymClariol stands for 1,2-decanediol and is a commercially available product distributed by Symrise AG.
Cut the fabric in pieces of 10 cm×10 cm (100 cm^2) to be inoculate.
It was used: • Corynebacterium xerosis ATCC373 strain in saline solution 0.85% • Staphylococcus aureus ATCC6538 strain in saline solution 0.85% • Sterile Saline solution to wet the fabric • Liquid laundry detergent Tixan Ipê batch 065091 16:30 manufactured in March, 2016 and expiration date March, 2018 • Regular Fabric Softener+Active 1 (SymClariol at 0.25%) • Regular Fabric Softener+Active 2 (SymClariol at 1%) • Regular Fabric Softener Placebo • Wash machine Electrolux
All materials were analyzed before the beginning of the tests and had <10 CFU/g for bacteria and fungi and absence of pathogens. An initial wash of the tissue was carried out with the purpose of reducing the initial microbiological count and subsequent counting for a reduction confirmation of 10 CFU/g and absence of pathogens. […]

Take `CCCCCCCCC(O)CO` (stereo not shown) [SymClariol, 1,2-decanediol]: the “bactericide and bacteriostatic performance (in words)” value was “improved the bactericide and bacteriostatic performance”.
